Source: publication PMC10683014, “Amino Acids as Chelating Ligands for Platinum: Enhanced Stability in an Aqueous Environment Promoted by Biocompatible Molecules” (Journal of Medicinal Chemistry, 2023)

Tests used:
[1] = Stability in aqueous solution followed by capillary electrophoresis; type: physicochemical; conditions: water; CE, samples at 37 °C
Description: The stability of complexes 1–4 was tested in an aqueous solution, to investigate how the different ways of amino acid coordination impacts aqueous degradation (see Table 4). The stability of complex 5 was previously measured in a 50% methanolic solution.[4]
(§1) A solution of sodium tetraborate (final borate concentration of 50 mM) and sodium dodecyl sulfate (100 mM) was used as a background electrolyte (BGE). The pH of the BGE was adjusted to 9.3 by titration with 1 M NaOH. Every new capillary was rinsed with 1 M NaOH (45 min), water (45 min), and BGE (45 min) before the first use. The capillary was kept on a constant temperature of 25 °C, whereas the sample carousel was temperature-controlled at 37 °C. Sample injection was performed in hydrodynamic mode, applying a pressure of 50 mbar for 2 s on the inlet vial. The separation voltage was set at +20 kV. If not stated differently, a wavelength of 195 nm was employed for the DAD detector. The analytic window was evaluated by using dodecaphenone as a micellar marker and methanol (HPLC grade) as an electroosmotic flow (EOF) marker. The run time required for the analysis was estimated to be 25 min. The capillary was flushed before every run with 0.1 M NaOH (3 min), water (3 min), and BGE (5 min). Every value is calculated from at least three independent measurements. The half-lives were presented as the mean ± standard deviation. All of the samples, buffers, and washing solutions were membrane-filtered (0.22 μm pore size). All samples employed for stability experiments were prepared using benzoic acid as an internal standard (IS).

[2] = Stability in concentrated trimethylglycine (TMG) aqueous solution followed by capillary electrophoresis; type: physicochemical; conditions: dissolved in 50% w/v TMG, diluted to final TMG 25%; CE at 230 nm
Text: Kadokawa et al.[35] reported that a highly concentrated solution of trimethyl glycine (TMG, also known as betaine) is able to improve the solubility of cisplatin in water without affecting the pharmacological proprieties of this drug. The mechanism behind this effect seems to lie in the hydrogen bond acceptor property of the carboxylate of TMG, which establishes hydrogen bonds with the amino groups of cisplatin. Betaine is a nontoxic compound and is highly soluble in water. On the basis of this study, we decided to test the solubility of 3 in a highly concentrated (50% w/v) TMG aqueous solution. The platinum compound was soluble enough to allow investigations with the established protocol for capillary electrophoresis. TMG has a strong absorption at low wavelengths, and therefore, a wavelength of 230 nm was chosen instead of 195 nm for recording the electropherograms with TMG.
as §1

[3] = system: MCF-7 breast cancer cell line; experiment: MTT metabolic activity (cytotoxicity) assay, MCF-7; type: cell-based; conditions: 72 h incubation
Description: (§2) In order to determine the antitumor activity of the platinum complexes, in vitro cytotoxicity tests were performed. Compounds 1–4 were tested with cisplatin as a reference on the breast cancer cell line MCF-7 and the colon carcinoma cell line HT-29. Complexes 1, 4, and 5, as well as the ligand (but-3-en-1-yl 2-acetoxybenzoate, 6) were additionally evaluated on MDA-MB-231 cells and A2780cis cells, also using cisplatin as a reference. The metabolic activity as an indicator of cytotoxicity was determined by a classical 3-(4,5-dimethylthiazol-2-yl)-2,5-diphenyltetrazoliumbromid (MTT) assay.
(§3) The cell lines A2780cis and MDA-MB-231 were cultivated in RPMI 1640 without phenol red (PAN Biotech, Aidenbach, Germany), supplemented with L-glutamine (2 mM), 100 μg/mL penicillin, 100 μg/mL streptomycin, and FCS (10%) (all from Invitrogen Corporation, Gibco, Paisley, Scotland) at 37 °C in a 5% CO2/95% air atmosphere, and passaged twice per week. To maintain resistance, A2780cis cells were incubated every second week with cisplatin (1 μM). The cell lines MCF-7 and HT-29 were grown in DMEM without phenol red (PAN Biotech, Aidenbach, Germany), containing L-glutamine, 100 μg/mL penicillin, 100 μg/mL streptomycin, sodium pyruvate ([…]) (PAN Biotech), and FCS (10%) under the same conditions as the other cell lines.
(§4) The exponentially growing cell lines were seeded at a density of 2000 cells/well for MCF-7 cells, 4000 cells/well for HT-29 cells and MDA-MB-231 cells, and 8000 cells/well for A2780cis cells, respectively, into clear flat-bottom 96-well plates in triplicates. Following 24 h of incubation for adherence at 37 °C in a humidified atmosphere (5% CO2/95% air), the compounds were added to reach the desired concentrations between 10 and 100 μM, respectively. All stock solutions were prepared in dimethylformamide at a concentration of 100 mM and were then diluted with the respective cell-culture medium to the appropriate concentrations. After another 72 h of incubation, the cellular metabolic activity was measured by employing a MTT assay. Hereby, the yellow tetrazolium salt is converted to a purple formazan salt by the functioning mitochondria. These purple crystals are then dissolved in DMSO and can be quantified via absorption measurements at 570 and 420 nm. The optical density of the particular medium was subtracted in order to exclude the unspecific staining caused by the FCS-containing medium. The values were calculated with Excel 2019 (Microsoft, Redmond, WA, USA) using nonlinear regression and the decal logarithm of the inhibitor versus variable slope equation, while the top constraint was set to 100%.

[4] = system: HT-29 colon carcinoma cell line; experiment: MTT metabolic activity (cytotoxicity) assay, HT-29; type: cell-based; conditions: 72 h incubation
Description: as §2, §3, §4

[5] = system: MDA-MB-231 breast cancer cell line; experiment: MTT metabolic activity (cytotoxicity) assay, MDA-MB-231; type: cell-based; conditions: MTT, 72 h incubation
Description: as §2, §3, §4

[6] = system: A2780cis ovarian carcinoma cell line (cisplatin-resistant); experiment: MTT metabolic activity (cytotoxicity) assay, A2780cis; type: cell-based; conditions: MTT, 72 h incubation
Description: as §2, §3, §4

[7] = target: T1, human recombinant COX-1 (Homo sapiens, UniProt P23219); experiment: COX-1 inhibition, enzyme immunoassay (COX Inhibitor Screening Assay); type: biochemical; conditions: 2 min incubation
T1 construct: purchased Cayman Chemicals
Description: The incubation time of the compounds with the respective isoenzymes was exactly 2 min. The results are presented as the mean ± SD of three independent experiments with two replicates of each experiment.

[8] = target: T2, human recombinant COX-2 (Homo sapiens, UniProt P35354); experiment: COX-2 inhibition, enzyme immunoassay (COX Inhibitor Screening Assay); type: biochemical; conditions: 2 min incubation
T2 construct: purchased Cayman Chemicals
T2 sequence (P35354 18-604): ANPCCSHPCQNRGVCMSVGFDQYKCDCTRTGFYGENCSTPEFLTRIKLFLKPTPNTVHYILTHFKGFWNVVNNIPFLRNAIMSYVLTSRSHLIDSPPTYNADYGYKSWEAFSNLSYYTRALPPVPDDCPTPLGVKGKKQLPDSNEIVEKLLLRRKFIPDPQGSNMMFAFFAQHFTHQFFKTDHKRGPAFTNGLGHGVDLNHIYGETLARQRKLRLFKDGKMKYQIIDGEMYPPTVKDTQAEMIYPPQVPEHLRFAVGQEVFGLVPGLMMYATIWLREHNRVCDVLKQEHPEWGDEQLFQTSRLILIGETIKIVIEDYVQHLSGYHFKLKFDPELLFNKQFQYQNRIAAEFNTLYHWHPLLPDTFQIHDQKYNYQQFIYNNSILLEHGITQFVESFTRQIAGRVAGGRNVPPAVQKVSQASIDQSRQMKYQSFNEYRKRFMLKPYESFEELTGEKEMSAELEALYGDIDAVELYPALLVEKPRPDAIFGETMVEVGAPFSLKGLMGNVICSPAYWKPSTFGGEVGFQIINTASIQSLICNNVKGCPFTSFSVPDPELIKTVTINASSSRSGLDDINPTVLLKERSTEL
Description: Metal complexes containing an ASA moiety have been reported as inhibitors for COX-1/-2 previously.[4],[14],[40]−[44] […] Hereby, the isolated enzymes were treated with final concentrations of 10 and 25 μM of substances 1, 4, 5, and 6.
Inhibition of the isolated human recombinant COX-1 and COX-2 isoenzymes by the platinum complexes (10 and 25 μM) was evaluated using an enzyme immunoassay (EIA) (COX Inhibitor Screening Assay, Cayman Chemicals, Ann Arbor, Mi, USA) following the manufacturer’s protocol. The incubation time of the compounds with the respective isoenzymes was exactly 2 min. The results are presented as the mean ± SD of three independent experiments with two replicates of each experiment. The untreated control was set at 0% inhibition of the COX activity.

[9] = Lipophilicity estimate from MEKC experiments (buffer/micelle partition); type: physicochemical; conditions: three independent experiments (one for 5 and 6)
Description: The lipophilicity of the tested compounds was estimated on the basis of MEKC experiments similar to Herbert and Dorsey[37] (see Table 7). The values estimated in this way were compared with theoretical values obtained from two different methods: for platinum complexes, a previously established method[38] was used, while for the organic ligand, the Osiris Property Explorer[39] was employed.
as §1

[10] = Solubility in water (qualitative observation); type: physicochemical
Description: Complex 1 was synthesized using the procedure reported by Fujita et al.,[20] and cubic bright-yellow crystals were obtained within hours. […] When a slightly lower concentration was used (0.4 mmol of platinum precursor instead of 0.5 mmol), keeping the amount of solvent constant, no crystallization occurred within a short time (3–4 h). However, some colorless needle-shaped crystals formed after an extended period of time (5–6 weeks). The crystals obtained from both conditions were analyzed via single-crystal X-ray diffractometry.
However, the release of olefin in an aqueous environment was detected to an extent of about 20% after 72 h. The chelating amino acid enhances the stability of complex 4 (>72 h) in comparison to compound 5 (69.6 ± 3.0 h).

[11] = water; cited from earlier work

T1 sequence (P23219 24-599): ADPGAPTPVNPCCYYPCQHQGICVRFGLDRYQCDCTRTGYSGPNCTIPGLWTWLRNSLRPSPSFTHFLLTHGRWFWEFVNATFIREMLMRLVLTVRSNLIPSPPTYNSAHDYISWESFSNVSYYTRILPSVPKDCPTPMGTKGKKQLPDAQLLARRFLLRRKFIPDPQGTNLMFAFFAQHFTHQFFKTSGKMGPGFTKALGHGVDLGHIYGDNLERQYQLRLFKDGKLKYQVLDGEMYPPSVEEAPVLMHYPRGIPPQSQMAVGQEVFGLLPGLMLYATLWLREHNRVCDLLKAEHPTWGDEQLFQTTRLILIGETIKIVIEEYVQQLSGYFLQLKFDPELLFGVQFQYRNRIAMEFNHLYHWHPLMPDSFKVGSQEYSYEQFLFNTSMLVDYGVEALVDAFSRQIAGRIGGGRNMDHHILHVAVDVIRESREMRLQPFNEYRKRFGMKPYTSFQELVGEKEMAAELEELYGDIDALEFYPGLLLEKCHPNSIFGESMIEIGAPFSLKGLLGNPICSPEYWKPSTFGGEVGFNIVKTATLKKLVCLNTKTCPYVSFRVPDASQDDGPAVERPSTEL

C=C.C[C@H](N)C(=O)[O][Pt][Cl] [1a, (Ethylene,N-trans)(L-alaninato-N,O)chlorido(η^2-ethene)platinate(II)]
half-life time (τ1/2) in water [1]: >72 h
half-life time (τ1/2) in TMG solution [2]: 24.3 ± 2.6 h
IC50 [3]: > 100 µM
IC50 [4]: > 100 µM
IC50 [5]: > 50 µM
IC50 [6]: > 50 µM
% Inhibition COX-1 ([7]; 10 μM): 43.67 ± 3.87%
% Inhibition COX-1 ([7]; 25 μM): 73.82 ± 5.60%
% Inhibition COX-2 ([8]; 10 μM): 27.23%
% Inhibition COX-2 ([8]; 25 μM): 52.36 ± 4.02%
coefficient of partition between buffer and micelles (k′), average [9]: 0.629 ± 0.009
solubility in water (in words) [10]: moderately soluble in water

C=C.NCCC(=O)[O][Pt][Cl] [2b, (Ethylene,O-trans)(β-alaninato-N,O)chlorido(η^2-ethene)platinate(II)]
half-life time (τ1/2) in water [1]: 1.7 ± 0.2 h
half-life time (τ1/2) in TMG solution [2]: 0.77 ± 0.08 h
IC50 [3]: > 100 µM
IC50 [4]: > 100 µM
coefficient of partition between buffer and micelles (k′), average [9]: 3.099 ± 0.149

CC(=O)Oc1ccccc1C(=O)O [ASA, acetylsalicylic acid, reference compound]
inhibition at 10 µM ([7]; 10 μM): 17.3%
inhibition at 10 µM ([8]; 10 μM): 9.33%

C=C.[Cl-].[Cl-].[Cl-].[K+].[Pt+2] [ZS, potassium trichloro(ethylene)platinate(II), reference compound]
% Inhibition COX-1 ([7]; 10 μM): 90.83%
% Inhibition COX-2 ([8]; 10 μM): 8.30%
time to quantitative conversion to the trans-aquo complex after dissolution in water [11]: ≤ 2 min
